21 molecules from ChEMBL document CHEMBL5375954, “Discovery and Evaluation of C6-Substituted Pyrazolopyrimidine-Based Bisphosphonate Inhibitors of the Human Geranylgeranyl Pyrophosphate Synthase and Evaluation of Their Antitumor Efficacy in Multiple Myeloma, Pancreatic Ductal Adenocarcinoma, and Colorectal Cancer” (J Med Chem, 2023) can be followed below.

For series [1], the target named is T1, Geranylgeranyl pyrophosphate synthase (Homo sapiens, UniProt O95749).
T1 sequence (O95749 whole entry): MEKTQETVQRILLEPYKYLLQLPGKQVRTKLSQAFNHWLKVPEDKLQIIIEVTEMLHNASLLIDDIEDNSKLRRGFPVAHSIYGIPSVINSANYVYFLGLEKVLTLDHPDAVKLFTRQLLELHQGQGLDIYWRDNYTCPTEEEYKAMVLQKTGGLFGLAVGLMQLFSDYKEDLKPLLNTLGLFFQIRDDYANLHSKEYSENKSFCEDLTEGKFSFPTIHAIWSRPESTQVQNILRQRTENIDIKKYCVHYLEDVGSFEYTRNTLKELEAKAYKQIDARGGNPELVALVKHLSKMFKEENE
Description: Inhibition of N-terminal His6 tagged human GGPPS expressed in Escherichia coli BL21(DE3) cells in presence of FPP and [14C]IPP by scintillation counting analysis.

For series [2], the system named is RPMI-8226. The series can be described thus: cells. The following applies: Homo sapiens, RPMI-8226, 72 h.
Series [3] deals with HCT-116. The series can be described thus: Antiproliferative activity against human HCT-116 cells assessed as inhibition of cell growth at 1 uM incubated for 72 hrs by MTS assay. Type of series: functional, cell-based. On the technique in general: Formazan colour is commonly taken as a measure of viable cells.
Series [4] addresses T2, Farnesyl pyrophosphate synthase (Homo sapiens) (UniProt P14324).
T2 sequence (whole entry): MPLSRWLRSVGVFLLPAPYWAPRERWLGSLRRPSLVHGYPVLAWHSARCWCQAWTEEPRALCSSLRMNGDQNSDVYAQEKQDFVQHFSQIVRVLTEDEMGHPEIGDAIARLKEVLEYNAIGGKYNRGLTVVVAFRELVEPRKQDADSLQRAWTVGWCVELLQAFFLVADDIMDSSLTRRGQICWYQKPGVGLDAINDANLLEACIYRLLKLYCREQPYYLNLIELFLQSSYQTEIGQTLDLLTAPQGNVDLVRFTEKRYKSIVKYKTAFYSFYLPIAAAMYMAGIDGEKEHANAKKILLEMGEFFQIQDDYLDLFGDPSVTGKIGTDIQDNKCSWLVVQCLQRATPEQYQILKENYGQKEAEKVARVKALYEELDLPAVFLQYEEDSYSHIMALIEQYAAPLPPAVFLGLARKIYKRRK
Description: Inhibition of N-terminally His6-tagged recombinant human FPPS expressed in Escherichia coli BL21(DE3) cells using […] and [14C]IPP as substrate at 1 uM preincubated for 10 mins followed by substrate addition by scintillation counting analysis relative to control.

The subject of series [5] is MIA PaCa-2. The series can be described thus: Antiproliferative activity against human MIA PaCa-2 cells assessed as inhibition of cell growth at 1 uM incubated for 72 hrs by MTS assay. Type of series: functional, cell-based.
For series [6], the system named is RPMI-8226. Description: Antiproliferative activity against human RPMI-8226 cells harboring KRAS G12A mutant at 0.1 to 10000 nM incubated for 72 hrs by MTS assay. It is filed as functional, cell-based. The following applies: dose 0.1-10000 nM.
In another series the test system is JJN-3. Description: Antiproliferative activity against human JJN-3 cells harboring wild type KRAS at 0.1 to 10000 nM incubated for 72 hrs by MTS assay. Type of series: functional, cell-based. The following applies: dose 0.1-10000 nM.
Series [7] in a line: Cytotoxicity against Normal human bronchial epithelial cells assessed as inhibition of cell growth at 10 uM incubated for 72 hrs by MTS assay relative to control. It is filed as toxicity, cell-based.
For another series, the system named is KMS-28PE. Description: Antiproliferative activity against human KMS-28-PE cells harboring KRAS G12A mutant at 0.1 to 10000 nM incubated for 72 hrs by MTS assay. It is filed as functional, cell-based. The following applies: dose 0.1-10000 nM.
Series [8] deals with T3, Ras-related protein Rap-1A (Homo sapiens) (UniProt P62834).
T3 sequence (whole entry): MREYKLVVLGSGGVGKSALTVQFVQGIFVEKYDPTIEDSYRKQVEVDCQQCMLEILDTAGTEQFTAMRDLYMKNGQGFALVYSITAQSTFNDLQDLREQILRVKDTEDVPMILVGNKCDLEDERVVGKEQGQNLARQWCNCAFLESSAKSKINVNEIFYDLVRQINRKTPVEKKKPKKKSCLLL
The series can be described thus: Inhibition of RAP-1A prenylation in human MIA PaCa-2 cells incubated for 48 hrs by Western blot analysis. It is filed as cell-based. Conditions: dose 10-1000 nM.

Series [9] addresses T3, Ras-related protein Rap-1A (Homo sapiens). The series can be described thus: Inhibition of RAP-1A prenylation in human HCT-116 cells incubated for 48 hrs by Western blot analysis. It is filed as cell-based. Conditions: dose 10-1000 nM.
Series [10] is described as follows: Cytotoxicity against wild type mouse normal ductal organoid [N(10128)] at 1 uM incubated for 72 hrs by CellTiter-Glo luminescence based analysis. It is filed as toxicity, tissue-based.
A further series has as its system KMS-12-PE. Description: Antiproliferative activity against human KMS-12-PE cells harboring wild type KRAS at 0.1 to 10000 nM incubated for 72 hrs by MTS assay. It is filed as functional, cell-based. The following applies: dose 0.1-10000 nM.
Series [11] has as its system RPMI-8226. Description: Induction of ER stress in human RPMI-8226 cells at 1 uM. It is filed as functional, cell-based.
A further series is filed under the species Mus musculus. Description: Cytotoxicity against KPC mouse pancreatic cancer organoid ccmT4 at 1 uM incubated for 72 hrs by CellTiter-Glo luminescence based analysis. It is filed as functional, tissue-based.
A short description of series [12]: Cytotoxicity against wild type mouse normal ductal organoid [N(10128)] at low nM concentrations incubated for 72 hrs by CellTiter-Glo luminescence based analysis. It is filed as toxicity, tissue-based. In general terms: Cellular ATP, detected with luciferase, serves as a proxy for viable cell number.
In series [13] the test system is MIA PaCa-2. The series can be described thus: cells. Conditions: Homo sapiens, MIA PaCa-2, 72 h.
Series [14] concerns HCT-116. Description: cells. The following applies: Homo sapiens, HCT-116, 72 h.
Series [15] is described as follows: Cytotoxicity against Normal human bronchial epithelial cells assessed as inhibition of cell growth incubated for 72 hrs by MTS assay. Type of series: toxicity, cell-based.
Series [16] in a line: Cytotoxicity against human IMR-90 cells assessed as inhibition of cell growth incubated for 72 hrs by MTS assay. Type of series: toxicity, cell-based.

In general, IC50 refers to the concentration needed to halve the response being measured. Broadly, the EC50 is the concentration that produces a half-maximal response. In general, inhibition refers to the drop in the measured response relative to a control, in per cent.

Calls of active or inactive are those of the source. The rule behind the calls is not given here.

For the molecule `CC(C)n1ncc2c(NC(P(=O)(O)O)P(=O)(O)O)nc(-c3cccc(C(=O)Nc4ccc(C(F)(F)F)cc4)c3)nc21`, the IC50 in series [1] is 0.02 µM. Further, the EC50 in the series with RPMI-8226 [2] was > 1 µM.

On to `Cn1cnc2c(NC(P(=O)(O)O)P(=O)(O)O)nc(-c3cccc(C(=O)Nc4ccc(F)cc4)c3)nc21`, for which the IC50 in series [1] worked out at 0.041 µM. The molecule further registered an EC50 with RPMI-8226 [2] of 0.67 µM.

For the molecule `O=C(Nc1ccc(C(F)(F)F)cc1)c1cccc(-c2nc(NC(P(=O)(O)O)P(=O)(O)O)c3ccsc3n2)c1`, the IC50 in [1] stood at 0.012 µM. In the series with RPMI-8226 [2], this molecule came in with an EC50 of 0.16 µM.

For `CCn1ncc2c(NC(P(=O)(O)O)P(=O)(O)O)nc(-c3cccc(C(=O)Nc4ccc(C(F)(F)F)cc4)c3)nc21`, the IC50 in [1] is 0.03 µM. In addition, the EC50 with RPMI-8226 [2] was > 1 µM.

As to `CC(C)n1ncc2c(NC(P(=O)(O)O)P(=O)(O)O)nc(-c3cccc(C(=O)Nc4ccc(F)cc4)c3)nc21`, the IC50 in series [1] stood at 0.03 µM. Moreover, the EC50 in the series on RPMI-8226 [2] was > 1 µM.

Turning to `COc1ccc(NC(=O)c2cccc(-c3nc(NC(P(=O)(O)O)P(=O)(O)O)c4ncn(C)c4n3)c2)cc1F`, in series [1], the IC50 stood at 0.058 µM. The outcome with HCT-116 [3] and in the series with MIA PaCa-2 [5] was inactive. The molecule also showed an EC50 in the series with RPMI-8226 [2] of 0.17 µM. In series [4], the inhibition was < 10%.

With `COc1ccc(NC(=O)c2cccc(-c3nc(NC(P(=O)(O)O)P(=O)(O)O)c4cn(C)nc4n3)c2)cc1F`, the IC50 in series [1] is 0.056 µM. For the same molecule, in the series on RPMI-8226 [2], a half-maximal effect (EC50) was put at 0.52 µM. Besides, the inhibition in series [4] stood at 15%.

Regarding `COc1ccc(NC(=O)c2cccc(-c3nc(NC(P(=O)(O)O)P(=O)(O)O)c4cnn(C(C)C)c4n3)c2)cc1F`, the IC50 in [1] was 0.041 µM. In addition, the result in the series on HCT-116 [3] and in the series with MIA PaCa-2 [5] was inactive. In addition, the EC50 with RPMI-8226 [2] was > 1 µM. For the same molecule, the inhibition in [4] is < 10%.

For the molecule `CCn1cc2c(NC(P(=O)(O)O)P(=O)(O)O)nc(-c3cccc(C(=O)Nc4ccc(OC)c(F)c4)c3)nc2n1`, the IC50 in series [1] was 0.067 µM. This molecule had an EC50 in the series with RPMI-8226 [2] of 0.552 µM.

Regarding `COc1ccc(NC(=O)c2cccc(-c3nc(NC(P(=O)(O)O)P(=O)(O)O)c4cnn(C)c4n3)c2)cc1F`, the IC50 in series [1] came out at 0.048 µM. Also, the outcome with HCT-116 [3] and with MIA PaCa-2 [5] was inactive. This molecule also registered an EC50 in the series on RPMI-8226 [2] of 0.15 µM. Further, the inhibition in series [4] was < 10%.

Consider `O=C(Nc1ccc(F)cc1)c1cccc(-c2nc(NC(P(=O)(O)O)P(=O)(O)O)c3cn[nH]c3n2)c1`, for which the IC50 in series [1] was 0.039 µM. Also, the EC50 in the series with RPMI-8226 [2] is > 1 µM.

For the molecule `CCn1ncc2c(NC(P(=O)(O)O)P(=O)(O)O)nc(-c3cccc(C(=O)Nc4ccc(F)cc4)c3)nc21`, the IC50 in series [1] was 0.029 µM. Moreover, the EC50 with RPMI-8226 [2] was > 1 µM.

Consider `Cn1cnc2c(NC(P(=O)(O)O)P(=O)(O)O)nc(-c3cccc(C(=O)Nc4ccc(C(F)(F)F)cc4)c3)nc21`, for which the IC50 in [1] stood at 0.013 µM. In the series with RPMI-8226 [2], this molecule displayed an EC50 of 0.51 µM.

For the molecule `Cn1ncc2c(NC(P(=O)(O)O)P(=O)(O)O)nc(-c3cccc(C(=O)Nc4ccc(F)cc4)c3)nc21`, the concentration for half-maximal inhibition (IC50) in [1] came to 0.031 µM. A half-maximal effect in the series with RPMI-8226 [2] (EC50) was put at 0.44 µM.

For `O=C(Nc1ccc(F)cc1)c1cccc(-c2nc(NC(P(=O)(O)O)P(=O)(O)O)c3ccsc3n2)c1`, the IC50 in series [1] came to 0.018 µM. Also, in the series with RPMI-8226 [2], the EC50 was found to be 0.12 µM.

Regarding `O=C(Nc1ccc(C(F)(F)F)cc1)c1cccc(-c2nc(NC(P(=O)(O)O)P(=O)(O)O)c3cn[nH]c3n2)c1`, in series [1], the IC50 was found to be 0.008 µM. Also, the EC50 in the series on RPMI-8226 [2] is > 1 µM.

Consider `COc1ccc(NC(=O)c2cccc(-c3nc(NC(P(=O)(O)O)P(=O)(O)O)c4ccsc4n3)c2)cc1F`, for which the result with RPMI-8226 [6], with JJN-3, in the series on KMS-28PE, with KMS-12-PE, with RPMI-8226 [11] and in the series filed under Mus musculus was Active. The inhibition at 72 h, 10 µM in [7] is ~30%. In addition, the inhibition result in [8] and in series [9] was “Dose-Dependent Effect” each time. Further, the Activity result in series [10] is given as “Non-Toxic”.

With `CCn1ncc2c(NC(P(=O)(O)O)P(=O)(O)O)nc(-c3cccc(C(=O)Nc4ccc(OC)c(F)c4)c3)nc21`, the IC50 in series [1] was determined as 0.04 µM. For the same molecule, the result with HCT-116 [3] and with MIA PaCa-2 [5] was inactive. In addition, the EC50 with RPMI-8226 [2] was > 1 µM. Further, the inhibition in series [4] was < 10%.

Turning to `Nc1ccn([C@@H]2O[C@H](CO)[C@@H](O)C2(F)F)c(=O)n1` [GEMCITABINE], the Activity entry in series [12] was “Toxic”. Moreover, the EC50 with MIA PaCa-2 [13] was 0.002 µM; in the series with HCT-116 [14] it was 0.004 µM.

For `COc1ccc(NC(=O)c2cccc(-c3nc(NC(P(=O)(O)O)P(=O)(O)O)c4cn[nH]c4n3)c2)cc1F`, the IC50 in [1] came out at 0.025 µM. Besides, the result with HCT-116 [3] and in the series with MIA PaCa-2 [5] was inactive. In the series with RPMI-8226 [2], this molecule returned a 50% effective concentration (EC50) of 0.64 µM. In addition, the inhibition in [4] worked out at 10%.

Regarding `COc1cccc2c1C(=O)c1c(O)c3c(c(O)c1C2=O)C[C@@](O)(C(=O)CO)C[C@@H]3O[C@H]1C[C@H](N)[C@H](O)[C@H](C)O1` [DOXORUBICIN], the EC50 at 72 h in [15] is 0.45 µM; in series [16] it was 0.36 µM. For the same molecule, the values for the EC50 in the series on MIA PaCa-2 [13] and with HCT-116 [14] were 0.13 µM and 0.041 µM, respectively. Besides, the Activity result in [10] is “Toxic”. The result in the series listed under Mus musculus was Active.
